US8192962B2, “Processes for detecting toxic substances” (Daikin Industries, Ltd., priority 2001, dated 2012)

Tested on: Genes belonging to other category
Assay: DNA chip mRNA expression in yeast, genes belonging to other category (Table 9)
Assay type: cell-based, Saccharomyces cerevisiae S288C
Method in brief: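 Cells were grown at 25° C. in YPD, treated at logarithmic phase for 2 h with a chemical at a concentration inhibiting growth but not causing death, and compared with untreated cultures. Labeled cDNA was hybridized to a DNA chip carrying all yeast genes, and the expression ratio was taken from scanner fluorescence.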

CCCCCCCCCCCCc1ccc(S(=O)(=O)[O-])cc1.[Na+] [(17), sodium dodecylbenzosulfonate]
The level of expressed mRNA in the presence of chemical substance/The level of expressed mRNA in the absence of chemical substance (yeast gene YAR010C): 1.5
The level of expressed mRNA in the presence of chemical substance/The level of expressed mRNA in the absence of chemical substance (yeast gene YBL005W-A): 1.3
The level of expressed mRNA in the presence of chemical substance/The level of expressed mRNA in the absence of chemical substance (yeast gene YBL041W): 1.3
The level of expressed mRNA in the presence of chemical substance/The level of expressed mRNA in the absence of chemical substance (yeast gene YBL043W): 2.3
The level of expressed mRNA in the presence of chemical substance/The level of expressed mRNA in the absence of chemical substance (yeast gene YBL078C): 1.8
The level of expressed mRNA in the presence of chemical substance/The level of expressed mRNA in the absence of chemical substance (yeast gene YBR214W): 1.1
The level of expressed mRNA in the presence of chemical substance/The level of expressed mRNA in the absence of chemical substance (yeast gene YCL020W): 0.9
The level of expressed mRNA in the presence of chemical substance/The level of expressed mRNA in the absence of chemical substance (yeast gene YCL027W): 0.7
The level of expressed mRNA in the presence of chemical substance/The level of expressed mRNA in the absence of chemical substance (yeast gene YCR004C): 1.4
The level of expressed mRNA in the presence of chemical substance/The level of expressed mRNA in the absence of chemical substance (yeast gene YCR071C): 1.2
The level of expressed mRNA in the presence of chemical substance/The level of expressed mRNA in the absence of chemical substance (yeast gene YCR088W): 1.4
The level of expressed mRNA in the presence of chemical substance/The level of expressed mRNA in the absence of chemical substance (yeast gene YDL008W): 1.5
The level of expressed mRNA in the presence of chemical substance/The level of expressed mRNA in the absence of chemical substance (yeast gene YDL238C): 1.1
The level of expressed mRNA in the presence of chemical substance/The level of expressed mRNA in the absence of chemical substance (yeast gene YDR055W): 2.0
The level of expressed mRNA in the presence of chemical substance/The level of expressed mRNA in the absence of chemical substance (yeast gene YDR084C): 2.0
The level of expressed mRNA in the presence of chemical substance/The level of expressed mRNA in the absence of chemical substance (yeast gene YDR085C): 1.3
The level of expressed mRNA in the presence of chemical substance/The level of expressed mRNA in the absence of chemical substance (yeast gene YDR104C): 0.9
The level of expressed mRNA in the presence of chemical substance/The level of expressed mRNA in the absence of chemical substance (yeast gene YDR115W): 1.2
The level of expressed mRNA in the presence of chemical substance/The level of expressed mRNA in the absence of chemical substance (yeast gene YDR259C): 1.0
The level of expressed mRNA in the presence of chemical substance/The level of expressed mRNA in the absence of chemical substance (yeast gene YDR315C): 1.2
The level of expressed mRNA in the presence of chemical substance/The level of expressed mRNA in the absence of chemical substance (yeast gene YDR358W): 1.9
The level of expressed mRNA in the presence of chemical substance/The level of expressed mRNA in the absence of chemical substance (yeast gene YDR388W): 1.2
The level of expressed mRNA in the presence of chemical substance/The level of expressed mRNA in the absence of chemical substance (yeast gene YDR432W): 0.7
The level of expressed mRNA in the presence of chemical substance/The level of expressed mRNA in the absence of chemical substance (yeast gene YDR481C): 1.2
The level of expressed mRNA in the presence of chemical substance/The level of expressed mRNA in the absence of chemical substance (yeast gene YDR510W): 1.1
The level of expressed mRNA in the presence of chemical substance/The level of expressed mRNA in the absence of chemical substance (yeast gene YEL042W): 0.7
The level of expressed mRNA in the presence of chemical substance/The level of expressed mRNA in the absence of chemical substance (yeast gene YEL066W): 1.0
The level of expressed mRNA in the presence of chemical substance/The level of expressed mRNA in the absence of chemical substance (yeast gene YER039C): 1.7
The level of expressed mRNA in the presence of chemical substance/The level of expressed mRNA in the absence of chemical substance (yeast gene YER107C): 1.1
The level of expressed mRNA in the presence of chemical substance/The level of expressed mRNA in the absence of chemical substance (yeast gene YER130C): 3.0
The level of expressed mRNA in the presence of chemical substance/The level of expressed mRNA in the absence of chemical substance (yeast gene YFL022C): 0.9
The level of expressed mRNA in the presence of chemical substance/The level of expressed mRNA in the absence of chemical substance (yeast gene YFL028C): 1.2
The level of expressed mRNA in the presence of chemical substance/The level of expressed mRNA in the absence of chemical substance (yeast gene YFL043C): 1.5
The level of expressed mRNA in the presence of chemical substance/The level of expressed mRNA in the absence of chemical substance (yeast gene YGL158W): 0.8
The level of expressed mRNA in the presence of chemical substance/The level of expressed mRNA in the absence of chemical substance (yeast gene YGL229C): 1.1
The level of expressed mRNA in the presence of chemical substance/The level of expressed mRNA in the absence of chemical substance (yeast gene YGR136W): 1.3
The level of expressed mRNA in the presence of chemical substance/The level of expressed mRNA in the absence of chemical substance (yeast gene YGR189C): 2.3
The level of expressed mRNA in the presence of chemical substance/The level of expressed mRNA in the absence of chemical substance (yeast gene YGR213C): 12.8
The level of expressed mRNA in the presence of chemical substance/The level of expressed mRNA in the absence of chemical substance (yeast gene YGR257C): 1.1
The level of expressed mRNA in the presence of chemical substance/The level of expressed mRNA in the absence of chemical substance (yeast gene YHR004C): 1.4
The level of expressed mRNA in the presence of chemical substance/The level of expressed mRNA in the absence of chemical substance (yeast gene YHR071W): 2.6
The level of expressed mRNA in the presence of chemical substance/The level of expressed mRNA in the absence of chemical substance (yeast gene YHR139C): 1.4
The level of expressed mRNA in the presence of chemical substance/The level of expressed mRNA in the absence of chemical substance (yeast gene YHR142W): 1.3
The level of expressed mRNA in the presence of chemical substance/The level of expressed mRNA in the absence of chemical substance (yeast gene YIL123W): 1.3
The level of expressed mRNA in the presence of chemical substance/The level of expressed mRNA in the absence of chemical substance (yeast gene YIL140W): 0.7
The level of expressed mRNA in the presence of chemical substance/The level of expressed mRNA in the absence of chemical substance (yeast gene YJL073W): 1.1
The level of expressed mRNA in the presence of chemical substance/The level of expressed mRNA in the absence of chemical substance (yeast gene YJL089W): 1.2
The level of expressed mRNA in the presence of chemical substance/The level of expressed mRNA in the absence of chemical substance (yeast gene YJL116C): 1.2
The level of expressed mRNA in the presence of chemical substance/The level of expressed mRNA in the absence of chemical substance (yeast gene YJR004C): 0.4
The level of expressed mRNA in the presence of chemical substance/The level of expressed mRNA in the absence of chemical substance (yeast gene YJR086W): 1.4
